Measured values from PMC5766233, “Ternary copper(II) complex: NCI60 screening, toxicity studies, and evaluation of efficacy in xenograft models of nasopharyngeal carcinoma” (PLoS ONE, 2018).

How the values were obtained:
NCI leukemia cell lines = settings: cited from earlier work
CYP1A = experiment: Cytochrome P450 induction assay in rat primary hepatocytes, CYP1A; format: in vitro ADME; settings: 1.0 μM, 3 days
Description: %Activity=(averagearearatiooftreated/averagearearatioofbasalcontrol)x100

[1] = Cytotoxicity in rat primary hepatocytes (resazurin); settings: male, Wistar, rat, freshly isolated rat primary hepatocytes
[2] = tested on: BGC823 (gastric cancer cells) xenograft; design: method as in earlier work; settings: cited from earlier work
[3] = tested on: NCI60 human cancer cell line panel; settings: ref cisplatin NSC number 119875; cited from earlier work

O=C([O-])c1ccccc1C(=O)[O-].[Cu+2].c1cnc2c(c1)ccc1cccnc12 [[Cu(o-phthalate)(phenanthroline)]]
sensitivity of most NCI leukemia cell lines (NCI leukemia cell lines): resistant

Cc1ccc2cc3c(ccc4ccccc43)c3c2c1CC3 [3-Methyl cholanthrene, reference compound]
Fold induction CYP1A (CYP1A): 10.9 | fold induction at 3 days, 1 µM (CYP1A; rat, rat primary hepatocytes, probe phenacetin (100 μM in HBSS)): > 10

CC/C(=C(\c1ccccc1)c1ccc(OCCN(C)C)cc1)c1ccccc1 [Tamoxifen, reference compound]
IC50 at 72 h [1]: 5.1 µM

N.N.[Cl][Pt][Cl] [cisplatin]
organ damage ([2]; 4 mg/kg): considerable damage to liver and kidney | xenograft growth, compared with [Ru(dmb)2(salH)]PF6 ([2]; 4 mg/kg): slightly less effective | GI50 [3]: 1.49 µM

[Ru(dmb)2(salH)]PF6
toxicity compared to cisplatin ([2]; 5 mg/kg): insignificant nephrotoxicity and nephrotoxicity | xenograft growth ([2]; 5 mg/kg): significantly suppressed
